For 5 molecules, IC50 and A/B results are on record in patent US5380755A, “Alkyl and alkylbenzyl ethers of substituted hydroquinones” (The Du Pont Merck Pharmaceutical Company, priority 1992, dated 1995).

A value given as a limit tells only on which side of the number the result lay.

One assay has as its target T1, MAO B (Rattus norvegicus, UniProt P19643).
T1 construct: two types A and B monoamine oxidase in rat brain tissue; from tissue; host or cells: rat brain
T1 sequence (P19643 1-520): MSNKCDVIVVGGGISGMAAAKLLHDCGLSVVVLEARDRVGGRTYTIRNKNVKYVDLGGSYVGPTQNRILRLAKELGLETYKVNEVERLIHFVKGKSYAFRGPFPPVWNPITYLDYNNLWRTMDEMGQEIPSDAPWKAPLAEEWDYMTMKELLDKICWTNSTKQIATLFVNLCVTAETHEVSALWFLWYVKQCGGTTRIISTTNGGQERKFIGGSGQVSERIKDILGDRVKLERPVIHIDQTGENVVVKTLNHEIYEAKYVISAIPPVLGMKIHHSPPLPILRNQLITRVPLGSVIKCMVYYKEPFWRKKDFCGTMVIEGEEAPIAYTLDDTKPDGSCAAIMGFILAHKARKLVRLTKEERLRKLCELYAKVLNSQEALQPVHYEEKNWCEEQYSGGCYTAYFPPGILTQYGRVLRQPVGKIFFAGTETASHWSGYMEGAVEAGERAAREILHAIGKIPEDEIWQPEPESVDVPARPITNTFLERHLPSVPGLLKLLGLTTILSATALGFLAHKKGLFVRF
Nature of the assay: in vitro inhibitory action on type B monoamine oxidase in rat brain tissue (J. Neurochem., 1983, 40, 1534). The class given is biochemical. The note with it: 200 mM Phenethylamine[14-C] as substrate. The source says: This test measures the in vitro inhibitory action of the two types A and B monoamine oxidase in rat brain tissue.

In another assay the test system is MAO A / MAO B. Description: in vitro inhibitory action on types A and B monoamine oxidase in rat brain tissue: A/B selectivity. The class given is biochemical. The note with it: ratio MAO A / MAO B, 5-Hydroxytryptamine[14-C] 1.0 mM (MAO A), Phenethylamine[14-C] 200 mM (MAO B). The source says: The compounds of the present invention are useful in the inhibition of monoamine oxidases. […] This test measures the in vitro inhibitory action of the two types A and B monoamine oxidase in rat brain tissue. […] Finally, it is expected that the compounds of the present invention may be useful in treating neurological disorders including memory disorders, cognitive dysfunction, dementia, dementia of the Alzheimer's type, Parkinson's syndrome, depression, hyperactive syndrome, schizophrenia, and changes in temperament.

Take `CC(=O)c1cc(OCc2cc(C(F)(F)F)cc(C(F)(F)F)c2)ccc1OCCCC#N` [Example 6, 4-{2'-Acetyl-4'-[(3,5-trifluoromethylphenyl)methyloxy]phenoxy}-butyronitrile]: the IC50 on MAO B turned out to be 100 nM. Besides, in the assay on MAO A / MAO B, the A/B was more than 10000.
The corresponding values for `CC(=O)c1cc(OCc2cccc(Cl)c2)ccc1OCCCO` [Example 32] are 100 nM and 400.
For `C#CCN(C)C(C)COc1ccc(OCc2cccc(Cl)c2)c(C(C)=O)c1` (centres unmarked) [Example 8, N-2-[3'-Acyl-4'-(m-chlorophenylmethyloxy)phenoxy]-1-methylethyl-N-methylpropargylamine], on MAO B, the IC50 is 3 nM. Further, the A/B with MAO A / MAO B is on record as less than 300.
Regarding `CNC(C)COc1ccc(OCc2cccc(Cl)c2)c(C(C)=O)c1` (centres unmarked) [Example 19], 7000 nM corresponded to half-maximal inhibition against MAO B (IC50).
`CCC(=O)c1cc(OCc2ccc(F)cc2)ccc1OCCCC#N` [Example 33]: the IC50 at MAO B was more than 100000 nM.

By IC50 is commonly meant the concentration at which inhibition is half-maximal. Low readings indicate greater potency in that assay, high ones weaker potency in that assay.
